Data reported in US20190142993A1, “ULTRA-THIN, HIGH STRENGTH, DRUG-LOADED SUTURES AND COATINGS THEREOF” (The Johns Hopkins University, priority 2016, published 2019).

Tested on: corneas of Sprague-Dawley rats
Conditions: rat, in vivo
Experimental: For assessment of in vivo biocompatibility, animals were cared for and experiments conducted in accordance with protocols approved by the Animal Care and Use Committee of the Johns Hopkins University. Protocols are also in accordance with the ARVO Statement for the Use of Animals in Ophthalmic and Vision Research. […] Prior to implantation, rats were intraperitoneally anesthetized with a solution of Ketamine:Xylazine (75:5 mg/kg, Sigma Aldrich) and a drop of 0.5% proparacaine hydrochloride ophthalmic solution (Bausch & Lomb Inc., Tampa, Fla.) was applied to the cornea. Following implantation, the rats were evaluated for signs of infection every day for seven days. The rats were then euthanized and eyes enucleated, fixed in formalin (Sigma Aldrich) for 24 h, embedded in paraffin, cross sectioned, and stained with hematoxylin and eosin for histological evaluation.

With nylon the “tissue reaction (histological analysis)” value was “no obvious signs of neovascularization or inflammation”.
